The target of assay [1] is T1, Recombinant mouse LOXL2 (Mus musculus, UniProt P58022).
T1 construct: purchased R&D Systems
The experiment in a line: Amplex-Red fluorometric enzymatic activity assay, recombinant mouse LOXL2. The conditions noted are these: 30 minute pre-incubation; average of at least three experiments. Type of assay: biochemical. On the procedure:
(§1) The measurement of the enzymatic activity of all lysyl oxidase family members was based on the detection of hydrogen peroxide with an Amplex‐Red oxidation assay, as described in Zhou et al26 Recombinant human semicarbazide sensitive amine oxidase (SSAO/VAP1), diamine oxidase (DAO) and monoamine oxidases A and B (MAO‐A and MAO‐B) assays were performed as previously described.27 For detailed enzymatic procedures, see supporting information.
(§2) The measurement of the enzymatic activity of all lysyl oxidase family members was based on the detection of hydrogen peroxide with an Amplex-Red oxidation assay, as described in Zhou et al.[1]; miniaturised in 384 well format, with the appropriate combination of substrate and assay buffer for each individual enzyme. After a 30 minute pre-incubation of the enzyme at 37 °C with the test compound (or with different incubation times for the time-dependency assay), one volume of reaction mixture containing 120 μM Amplex Red (AR) (Life Technologies), 1.5 U/mL horseradish peroxidase (HRP) (Sigma-Aldrich) and the specific substrate was added to each sample. The relative fluorescence units (RFU) were then measured every 2.5 minutes for 30 minutes at 37°C, excitation 565 nm and emission 590, on a BMG Clariostar Microplate Reader. […]

Assay [2] concerns the target T2, Native human LOX (Homo sapiens, UniProt P28300).
T2 construct: collecting the 30-kDa LOX in the lower molecular weight portion; host or cells: IMR90 conditioned medium
The experiment in a line: Amplex-Red fluorometric enzymatic activity assay, native human LOX (IMR90 conditioned medium). Type of assay: biochemical. Particulars: 30 minute pre-incubation; average of at least three experiments. The protocol: as §1, §2

In assay [3] the target is T3, Recombinant human LOXL3 (Homo sapiens, UniProt P58215).
T3 construct: purchased R&D Systems
T3 sequence (P58215 26-753): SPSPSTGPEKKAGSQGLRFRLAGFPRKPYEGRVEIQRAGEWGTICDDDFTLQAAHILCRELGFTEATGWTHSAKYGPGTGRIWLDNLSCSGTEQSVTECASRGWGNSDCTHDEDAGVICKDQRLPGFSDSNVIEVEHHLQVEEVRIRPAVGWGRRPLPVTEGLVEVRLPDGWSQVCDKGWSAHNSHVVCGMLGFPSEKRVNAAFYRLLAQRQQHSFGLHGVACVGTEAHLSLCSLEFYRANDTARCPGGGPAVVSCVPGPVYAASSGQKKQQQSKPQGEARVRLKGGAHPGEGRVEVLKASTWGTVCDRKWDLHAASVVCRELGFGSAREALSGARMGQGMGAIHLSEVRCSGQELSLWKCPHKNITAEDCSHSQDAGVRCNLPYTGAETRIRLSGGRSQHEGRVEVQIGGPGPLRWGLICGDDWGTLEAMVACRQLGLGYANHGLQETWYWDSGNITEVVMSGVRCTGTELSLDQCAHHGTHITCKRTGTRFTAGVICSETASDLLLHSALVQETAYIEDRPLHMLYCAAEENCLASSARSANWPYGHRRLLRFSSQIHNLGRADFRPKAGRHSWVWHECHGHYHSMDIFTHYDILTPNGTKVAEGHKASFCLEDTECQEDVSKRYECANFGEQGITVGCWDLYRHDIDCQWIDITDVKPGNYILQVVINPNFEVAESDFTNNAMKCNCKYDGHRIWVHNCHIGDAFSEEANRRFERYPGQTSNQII
The experiment in a line: Amplex-Red fluorometric enzymatic activity assay, recombinant human LOXL3. In kind it is biochemical. The conditions noted are these: 30 minute pre-incubation; average of at least three experiments. The protocol: as §1, §2

In assay [4] the target is T4, Recombinant human LOXL4 (Homo sapiens, UniProt Q96JB6).
T4 construct: obtained from Dr. Fernando Rodríguez Pascual, university of Madrid, Spain (academic provider, not a vendor)
T4 sequence (Q96JB6 25-756): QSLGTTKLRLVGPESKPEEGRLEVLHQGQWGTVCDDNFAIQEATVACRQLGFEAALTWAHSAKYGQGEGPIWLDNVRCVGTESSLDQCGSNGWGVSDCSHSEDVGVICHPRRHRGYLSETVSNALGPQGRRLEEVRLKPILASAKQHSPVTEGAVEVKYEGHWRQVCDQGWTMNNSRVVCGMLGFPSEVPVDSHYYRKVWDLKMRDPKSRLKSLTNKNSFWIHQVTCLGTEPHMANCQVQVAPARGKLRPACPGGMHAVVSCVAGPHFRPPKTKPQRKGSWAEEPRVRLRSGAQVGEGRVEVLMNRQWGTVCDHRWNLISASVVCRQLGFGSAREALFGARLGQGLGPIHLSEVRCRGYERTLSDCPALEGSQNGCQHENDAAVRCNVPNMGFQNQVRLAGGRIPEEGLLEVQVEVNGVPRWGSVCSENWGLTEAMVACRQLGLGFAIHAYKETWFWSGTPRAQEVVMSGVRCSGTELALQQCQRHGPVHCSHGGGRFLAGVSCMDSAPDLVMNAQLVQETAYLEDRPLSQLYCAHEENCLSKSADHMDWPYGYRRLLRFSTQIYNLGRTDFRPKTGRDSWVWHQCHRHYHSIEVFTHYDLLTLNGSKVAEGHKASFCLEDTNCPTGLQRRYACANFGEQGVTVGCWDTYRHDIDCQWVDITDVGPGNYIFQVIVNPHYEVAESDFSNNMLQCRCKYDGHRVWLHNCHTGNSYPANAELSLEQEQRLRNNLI
The experiment in a line: Amplex-Red fluorometric enzymatic activity assay, recombinant human LOXL4. Type of assay: biochemical. The conditions noted are these: 30 minute pre-incubation; average of at least three experiments. On the procedure:
as §1, §2

Assay [5] concerns the target T5, LOXL2 (Homo sapiens, UniProt Q9Y4K0).
T5 sequence (Q9Y4K0 26-774): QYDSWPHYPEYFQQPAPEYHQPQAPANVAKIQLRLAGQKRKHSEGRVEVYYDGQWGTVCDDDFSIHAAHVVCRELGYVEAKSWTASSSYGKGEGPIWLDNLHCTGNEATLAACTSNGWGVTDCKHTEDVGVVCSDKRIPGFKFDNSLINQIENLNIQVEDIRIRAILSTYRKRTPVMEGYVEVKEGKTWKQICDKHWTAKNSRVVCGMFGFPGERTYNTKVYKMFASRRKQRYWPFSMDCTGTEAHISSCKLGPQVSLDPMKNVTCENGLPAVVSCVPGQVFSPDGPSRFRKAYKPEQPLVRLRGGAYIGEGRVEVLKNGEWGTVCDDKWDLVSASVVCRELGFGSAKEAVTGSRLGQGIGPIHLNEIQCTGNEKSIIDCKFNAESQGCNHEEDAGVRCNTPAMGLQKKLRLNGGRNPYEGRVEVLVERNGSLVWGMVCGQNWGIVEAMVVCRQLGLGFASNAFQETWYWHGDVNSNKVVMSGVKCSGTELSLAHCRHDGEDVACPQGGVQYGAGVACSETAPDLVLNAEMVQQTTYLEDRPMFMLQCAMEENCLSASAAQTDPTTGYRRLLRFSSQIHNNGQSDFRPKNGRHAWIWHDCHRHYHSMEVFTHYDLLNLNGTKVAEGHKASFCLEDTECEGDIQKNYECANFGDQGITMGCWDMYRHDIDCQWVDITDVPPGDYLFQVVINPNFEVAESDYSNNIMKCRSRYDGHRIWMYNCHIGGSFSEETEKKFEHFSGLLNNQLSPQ
Kind of assay: Substrate competition (putrescine), LOXL2. Type of assay: biochemical. Particulars: increasing concentrations of the substrate. On the procedure: The measurement of the enzymatic activity of all lysyl oxidase family members was based on the detection of hydrogen peroxide with an Amplex-Red oxidation assay, as described in Zhou et al.[1]; miniaturised in 384 well format, with the appropriate combination of substrate and assay buffer for each individual enzyme. After a 30 minute pre-incubation of the enzyme at 37 °C with the test compound (or with different incubation times for the time-dependency assay), one volume of reaction mixture containing 120 μM Amplex Red (AR) (Life Technologies), 1.5 U/mL horseradish peroxidase (HRP) (Sigma-Aldrich) and the specific substrate was added to each sample. The relative fluorescence units (RFU) were then measured every 2.5 minutes for 30 minutes at 37°C, excitation 565 nm and emission 590, on a BMG Clariostar Microplate Reader. All the substrates were used at concentrations corresponding to their Km towards the corresponding enzyme, or with a range of different concentrations for the substrate competition experiments.
The measurement of substrate competition was based on the release of hydrogen peroxide as previously described. The target enzyme was incubated with the inhibitor, and differing concentrations of the substrate (putrescine) in reaction mixture and measured.

Assay [6] addresses Adrenergic β2 (Homo sapiens, UniProt P07550). The experiment in a line: Eurofins Hit Profiling Screen. The conditions noted are these: 10 μmol/L. Type of assay: binding.
Assay [7] concerns the target Dopamine D2S (Homo sapiens, UniProt P14416). Kind of assay: Eurofins Hit Profiling Screen. The conditions noted are these: 10 μmol/L. In kind it is binding.
Assay [8] deals with Histamine H1 (Homo sapiens, UniProt P35367). Kind of assay: Eurofins Hit Profiling Screen. Type of assay: binding. The conditions noted are these: 10 μmol/L.
Histamine H1, sequence (P35367 whole entry): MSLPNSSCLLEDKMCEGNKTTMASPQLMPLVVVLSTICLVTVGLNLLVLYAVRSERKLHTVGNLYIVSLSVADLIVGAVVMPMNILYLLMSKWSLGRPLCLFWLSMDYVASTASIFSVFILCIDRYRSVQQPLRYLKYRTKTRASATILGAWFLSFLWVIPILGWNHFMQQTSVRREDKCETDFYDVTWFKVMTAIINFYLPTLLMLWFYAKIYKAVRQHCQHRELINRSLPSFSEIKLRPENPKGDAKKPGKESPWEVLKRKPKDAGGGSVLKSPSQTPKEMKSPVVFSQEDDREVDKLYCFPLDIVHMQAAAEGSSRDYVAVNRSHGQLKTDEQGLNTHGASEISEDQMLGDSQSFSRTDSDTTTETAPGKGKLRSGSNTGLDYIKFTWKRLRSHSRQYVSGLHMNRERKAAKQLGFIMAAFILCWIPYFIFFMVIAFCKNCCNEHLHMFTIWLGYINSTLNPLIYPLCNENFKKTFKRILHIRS
For assay [9], the target named is Muscarinic M3 (Homo sapiens, UniProt P20309). The experiment in a line: Eurofins Hit Profiling Screen. The conditions noted are these: 10 μmol/L. In kind it is binding.
Muscarinic M3, sequence (P20309 whole entry): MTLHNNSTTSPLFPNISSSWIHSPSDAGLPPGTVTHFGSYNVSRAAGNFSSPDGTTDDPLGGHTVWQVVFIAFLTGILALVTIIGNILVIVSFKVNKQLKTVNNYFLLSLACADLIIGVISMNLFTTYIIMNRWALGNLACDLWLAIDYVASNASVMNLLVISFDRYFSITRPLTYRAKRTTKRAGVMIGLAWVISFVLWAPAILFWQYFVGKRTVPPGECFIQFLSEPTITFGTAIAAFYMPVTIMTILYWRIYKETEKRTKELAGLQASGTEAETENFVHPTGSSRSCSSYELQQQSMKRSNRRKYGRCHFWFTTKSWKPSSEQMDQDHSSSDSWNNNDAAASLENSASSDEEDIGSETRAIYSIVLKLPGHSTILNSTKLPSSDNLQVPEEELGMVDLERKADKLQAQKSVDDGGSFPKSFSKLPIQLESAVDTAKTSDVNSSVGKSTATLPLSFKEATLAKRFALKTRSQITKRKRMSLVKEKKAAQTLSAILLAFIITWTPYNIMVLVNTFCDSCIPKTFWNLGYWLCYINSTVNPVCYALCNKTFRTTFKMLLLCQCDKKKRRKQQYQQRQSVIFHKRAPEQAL
Assay [10] has as its system Sodium Channel, Site 2. Kind of assay: Eurofins Hit Profiling Screen. Type of assay: binding. The conditions noted are these: 10 μmol/L.

The record followed here is publication PMC6378217, “The lysyl oxidase like 2/3 enzymatic inhibitor, PXS‐5153A, reduces crosslinks and ameliorates fibrosis” (Journal of Cellular and Molecular Medicine, 2018).

T1 sequence (P58022 26-776): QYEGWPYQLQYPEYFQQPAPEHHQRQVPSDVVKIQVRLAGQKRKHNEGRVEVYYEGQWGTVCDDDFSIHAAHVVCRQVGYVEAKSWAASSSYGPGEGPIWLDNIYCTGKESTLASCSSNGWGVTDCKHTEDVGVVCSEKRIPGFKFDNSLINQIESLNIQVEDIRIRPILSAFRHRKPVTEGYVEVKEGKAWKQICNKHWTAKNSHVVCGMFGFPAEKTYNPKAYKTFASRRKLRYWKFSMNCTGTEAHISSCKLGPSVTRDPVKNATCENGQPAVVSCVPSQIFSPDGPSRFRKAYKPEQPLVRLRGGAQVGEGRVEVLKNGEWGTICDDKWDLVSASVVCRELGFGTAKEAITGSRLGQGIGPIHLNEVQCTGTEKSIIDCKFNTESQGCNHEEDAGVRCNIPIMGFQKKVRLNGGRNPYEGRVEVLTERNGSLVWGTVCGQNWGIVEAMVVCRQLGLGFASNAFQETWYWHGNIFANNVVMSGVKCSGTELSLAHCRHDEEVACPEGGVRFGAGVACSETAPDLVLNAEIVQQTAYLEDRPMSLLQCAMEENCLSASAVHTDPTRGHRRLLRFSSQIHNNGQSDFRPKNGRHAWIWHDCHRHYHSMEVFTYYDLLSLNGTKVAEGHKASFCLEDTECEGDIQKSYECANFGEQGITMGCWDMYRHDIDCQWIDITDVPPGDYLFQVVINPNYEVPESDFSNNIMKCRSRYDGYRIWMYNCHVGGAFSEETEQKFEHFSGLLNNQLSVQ
T2 sequence (P28300 169-417): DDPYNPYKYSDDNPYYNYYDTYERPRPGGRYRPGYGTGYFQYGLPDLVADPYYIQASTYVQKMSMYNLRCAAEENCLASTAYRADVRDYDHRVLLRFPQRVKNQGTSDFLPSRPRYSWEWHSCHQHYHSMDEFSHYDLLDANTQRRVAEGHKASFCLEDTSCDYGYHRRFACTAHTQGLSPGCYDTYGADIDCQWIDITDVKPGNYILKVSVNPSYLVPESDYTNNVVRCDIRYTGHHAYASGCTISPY
Dopamine D2S, sequence (P14416 1-414 isoform P14416-2): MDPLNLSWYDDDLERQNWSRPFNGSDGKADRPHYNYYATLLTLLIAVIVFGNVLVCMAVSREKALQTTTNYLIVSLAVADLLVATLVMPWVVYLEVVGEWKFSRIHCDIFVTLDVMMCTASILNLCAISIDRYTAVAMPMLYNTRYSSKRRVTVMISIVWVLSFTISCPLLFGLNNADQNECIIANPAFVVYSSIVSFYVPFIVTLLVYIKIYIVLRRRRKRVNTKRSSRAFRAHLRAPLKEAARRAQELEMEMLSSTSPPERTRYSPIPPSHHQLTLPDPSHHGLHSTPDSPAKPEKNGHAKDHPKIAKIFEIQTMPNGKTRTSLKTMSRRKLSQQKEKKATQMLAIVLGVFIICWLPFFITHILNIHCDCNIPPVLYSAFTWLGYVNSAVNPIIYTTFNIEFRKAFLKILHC
Adrenergic β2, sequence (P07550 whole entry): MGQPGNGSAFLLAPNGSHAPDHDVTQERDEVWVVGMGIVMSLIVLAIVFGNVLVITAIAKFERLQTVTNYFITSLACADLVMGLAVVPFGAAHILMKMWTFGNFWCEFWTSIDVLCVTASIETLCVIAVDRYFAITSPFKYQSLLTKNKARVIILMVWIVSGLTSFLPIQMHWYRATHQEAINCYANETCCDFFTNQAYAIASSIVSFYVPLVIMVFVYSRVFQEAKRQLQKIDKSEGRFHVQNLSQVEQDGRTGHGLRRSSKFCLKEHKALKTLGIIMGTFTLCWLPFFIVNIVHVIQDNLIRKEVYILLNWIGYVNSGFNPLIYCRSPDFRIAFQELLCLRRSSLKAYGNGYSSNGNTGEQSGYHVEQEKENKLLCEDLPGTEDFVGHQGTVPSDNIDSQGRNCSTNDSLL

For orientation: IC50 means the point on the concentration scale where inhibition reaches its midpoint. One may read the % inhibition as the change of the read-out against control, counted positive when it falls. As for `Cc1c(-c2cccc(S(=O)(=O)N(C)C)c2)c2ncccc2n1C/C(F)=C/CN.Cl.Cl` [PXS-5153A], the IC50 was 21 nM in [1], 1790 nM in [2], 63 nM in assay [3] and 104 nM in assay [4]. The “pIC50 ± SD” value in assay [1] is 7.7 ± 0.2; in assay [2] it was 5.7 ± 0.16; in assay [3], 7.2 ± 0.23; in assay [4], 7 ± 0.1. Further, in assay [5], the “substrate competition” value is “in a competitive manner”. Besides, the “% inhibition” value in [6] is given as -5%; in [7], 10%; in assay [8], 23%; in assay [9], 9%; in assay [10], 57%.
